The record followed here is publication PMC9386376, “Discovery of spirooxindole-derived small-molecule compounds as novel HDAC/MDM2 dual inhibitors and investigation of their anticancer activity” (Frontiers in Oncology, 2022).

Molecules are shown by their SMILES. Entries after “also recorded” stand apart in the source; their conditions may differ.

Experiment [1] concerns Ac-H4 in MCF-7 cells. Description: Western blot, acetylation of H4. It counts as cell-based, human. Conditions: MCF-7, 24 h. As for the experimental part:
The cells were collected and washed with cold PBS twice, then added the protease and phosphatase inhibitors contained lysis buffer. Total cell lysates were prepared in lysis RIPA buffer (Invitrogen, CA, USA) on ice for 30 min, followed by centrifugation at 12000 rpm for 10 min at 4°C. After collecting supernatant, protein concentration was determined by a BCA protein assay. The total proteins were loaded into the 10%-15% SDS-PAGE gel and separated by sodium dodecyl sulfate polyacrylamide gel electrophoresis (PAGE). After electrophoresis, the protein was transferred to the PVDF membranes and rinsed three times in PBST buffer for 10 min each time, then sealed with 5% BSA Buffer for 1h. The membranes were incubated at 4°C for 24 h with primary antibodies and washed with TBST three times. Then incubated at room temperature for 2 h with secondary antibodies (1:10,000). The incubated PVDF membranes were taken out and rinsed with TBST three times. The protein bands were visualized through enhanced chemiluminescence (ECL) WB substrate (Millipore, MA, USA) and analyzed by ChemiScope. The antibodies including p53, MDM2, H4, and GAPDH were purchased from Abcam (Cambridge, MA, USA).

Experiment [2] addresses HDAC2 (Homo sapiens, UniProt Q92769). The experiment can be described thus: HDAC isoform selectivity, HDAC2. It counts as biochemical. The settings on record: HDAC subtype panel.
The target in experiment [3] is HDAC5 (Homo sapiens, UniProt Q9UQL6). The experiment can be described thus: HDAC isoform selectivity, HDAC5. The class given is biochemical. The settings on record: HDAC subtype panel.
HDAC5, sequence (Q9UQL6 whole entry, canonical isoform): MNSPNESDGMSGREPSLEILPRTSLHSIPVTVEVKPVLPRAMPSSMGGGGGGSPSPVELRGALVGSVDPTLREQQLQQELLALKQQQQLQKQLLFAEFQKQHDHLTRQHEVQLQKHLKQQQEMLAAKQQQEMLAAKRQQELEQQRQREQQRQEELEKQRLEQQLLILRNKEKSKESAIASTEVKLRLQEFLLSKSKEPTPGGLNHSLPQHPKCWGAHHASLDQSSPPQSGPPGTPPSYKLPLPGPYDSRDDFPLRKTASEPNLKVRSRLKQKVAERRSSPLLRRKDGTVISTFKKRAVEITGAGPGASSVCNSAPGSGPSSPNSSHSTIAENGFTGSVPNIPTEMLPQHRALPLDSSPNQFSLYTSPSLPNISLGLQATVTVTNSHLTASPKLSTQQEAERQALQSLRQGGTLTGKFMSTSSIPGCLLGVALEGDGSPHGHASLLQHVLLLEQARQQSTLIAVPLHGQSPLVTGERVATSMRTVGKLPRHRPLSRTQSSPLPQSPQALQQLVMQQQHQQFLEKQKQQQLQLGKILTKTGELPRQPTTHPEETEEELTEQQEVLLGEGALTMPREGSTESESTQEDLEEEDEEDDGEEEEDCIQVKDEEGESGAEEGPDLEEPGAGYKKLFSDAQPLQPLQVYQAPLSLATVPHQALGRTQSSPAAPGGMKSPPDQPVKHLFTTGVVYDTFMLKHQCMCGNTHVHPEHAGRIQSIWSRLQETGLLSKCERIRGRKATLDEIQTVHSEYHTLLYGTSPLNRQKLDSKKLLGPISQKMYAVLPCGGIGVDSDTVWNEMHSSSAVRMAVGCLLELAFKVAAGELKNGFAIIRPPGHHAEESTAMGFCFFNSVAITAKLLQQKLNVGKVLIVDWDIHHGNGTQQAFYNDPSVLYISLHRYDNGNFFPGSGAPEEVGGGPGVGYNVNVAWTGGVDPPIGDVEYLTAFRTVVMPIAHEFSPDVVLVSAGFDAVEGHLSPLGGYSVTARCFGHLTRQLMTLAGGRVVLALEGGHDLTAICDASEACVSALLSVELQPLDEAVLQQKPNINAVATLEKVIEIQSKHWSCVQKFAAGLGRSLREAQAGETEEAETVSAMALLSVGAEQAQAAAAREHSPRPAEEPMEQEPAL
Experiment [4] deals with T1, GST-tagged MDM2 (Homo sapiens, UniProt Q00987).
T1 construct: purchased Cisbio Co. Ltd
T1 sequence (Q00987 whole entry): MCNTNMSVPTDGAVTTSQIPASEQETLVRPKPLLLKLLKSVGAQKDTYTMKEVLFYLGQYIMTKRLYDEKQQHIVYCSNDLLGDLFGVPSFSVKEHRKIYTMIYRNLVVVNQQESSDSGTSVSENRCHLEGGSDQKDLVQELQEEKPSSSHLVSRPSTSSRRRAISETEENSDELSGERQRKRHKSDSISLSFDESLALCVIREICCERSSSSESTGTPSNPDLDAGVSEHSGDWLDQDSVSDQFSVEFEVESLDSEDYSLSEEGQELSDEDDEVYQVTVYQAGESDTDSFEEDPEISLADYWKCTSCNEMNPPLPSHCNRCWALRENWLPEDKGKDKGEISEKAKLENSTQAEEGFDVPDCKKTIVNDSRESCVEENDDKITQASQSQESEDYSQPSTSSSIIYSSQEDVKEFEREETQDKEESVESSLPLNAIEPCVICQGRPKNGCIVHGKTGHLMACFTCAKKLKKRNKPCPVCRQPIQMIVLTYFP
The experiment can be described thus: HTRF enzyme inhibition assay, MDM2. The class given is biochemical. Conditions: compound at 1 μM. On the procedure:
The enzymatic assay of test compounds is using the HTRF-based method provided by Cisbio Co. Ltd. In brief, the target compounds to be tested were prepared into samples with a concentration of 1 μM, which was added to GST-tagged MDM2 and HDAC1 proteins, respectively, then biotinylated substrate p53 peptide and HTRF detection reagents were added. The data obtained were processed by the ratio method, and the inhibition rates of MDM2 and HDAC1 were calculated. The detailed experimental procedures are according to the manufacturer’s protocols.

Experiment [5] deals with T2, HDAC8 (Homo sapiens, UniProt Q9BY41).
T2 sequence (Q9BY41 1-377): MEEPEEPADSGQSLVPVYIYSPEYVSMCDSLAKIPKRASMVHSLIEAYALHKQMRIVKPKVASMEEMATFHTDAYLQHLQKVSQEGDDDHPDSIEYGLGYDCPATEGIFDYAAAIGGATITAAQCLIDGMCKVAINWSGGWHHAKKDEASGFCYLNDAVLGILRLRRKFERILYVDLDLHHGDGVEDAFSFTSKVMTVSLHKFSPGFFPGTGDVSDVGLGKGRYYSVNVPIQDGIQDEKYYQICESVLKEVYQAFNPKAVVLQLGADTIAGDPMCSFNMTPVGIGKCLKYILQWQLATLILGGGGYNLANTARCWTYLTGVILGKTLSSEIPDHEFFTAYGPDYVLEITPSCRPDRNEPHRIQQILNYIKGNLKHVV
Description: HDAC isoform selectivity, HDAC8. Conditions: HDAC subtype panel. The class given is biochemical.

Experiment [6] deals with HDAC9 (Homo sapiens, UniProt Q9UKV0). Description: HDAC isoform selectivity, HDAC9. The class given is biochemical. Conditions: HDAC subtype panel.
HDAC9, sequence (Q9UKV0 whole entry, canonical isoform): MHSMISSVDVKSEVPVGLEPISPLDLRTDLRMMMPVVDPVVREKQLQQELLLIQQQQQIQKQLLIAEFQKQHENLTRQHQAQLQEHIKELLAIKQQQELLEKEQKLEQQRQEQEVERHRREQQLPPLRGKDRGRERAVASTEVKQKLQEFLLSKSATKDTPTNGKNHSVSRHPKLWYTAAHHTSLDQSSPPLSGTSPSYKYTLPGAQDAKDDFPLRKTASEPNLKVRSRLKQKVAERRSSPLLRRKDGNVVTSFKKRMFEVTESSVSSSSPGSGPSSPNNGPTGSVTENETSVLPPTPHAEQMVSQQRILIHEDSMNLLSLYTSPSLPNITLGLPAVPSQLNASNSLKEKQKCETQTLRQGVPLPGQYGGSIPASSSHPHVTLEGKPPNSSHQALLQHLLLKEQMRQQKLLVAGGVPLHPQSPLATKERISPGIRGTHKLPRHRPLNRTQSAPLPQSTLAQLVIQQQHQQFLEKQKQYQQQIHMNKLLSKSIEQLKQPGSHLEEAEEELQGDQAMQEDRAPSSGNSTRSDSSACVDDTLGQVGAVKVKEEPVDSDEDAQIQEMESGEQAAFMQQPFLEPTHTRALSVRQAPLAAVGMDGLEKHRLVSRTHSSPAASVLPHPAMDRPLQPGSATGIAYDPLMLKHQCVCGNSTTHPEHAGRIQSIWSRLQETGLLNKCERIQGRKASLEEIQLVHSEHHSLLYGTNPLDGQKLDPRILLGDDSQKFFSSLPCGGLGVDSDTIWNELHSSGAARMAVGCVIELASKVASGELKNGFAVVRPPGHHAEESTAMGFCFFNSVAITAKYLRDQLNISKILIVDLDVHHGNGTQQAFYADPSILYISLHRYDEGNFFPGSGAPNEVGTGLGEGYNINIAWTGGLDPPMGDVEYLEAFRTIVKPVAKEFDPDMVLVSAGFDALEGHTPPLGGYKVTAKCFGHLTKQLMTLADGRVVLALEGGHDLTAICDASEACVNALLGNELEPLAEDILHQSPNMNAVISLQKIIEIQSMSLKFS
The target in experiment [7] is T3, HDAC11 (Homo sapiens, UniProt Q96DB2).
T3 sequence (Q96DB2 1-347): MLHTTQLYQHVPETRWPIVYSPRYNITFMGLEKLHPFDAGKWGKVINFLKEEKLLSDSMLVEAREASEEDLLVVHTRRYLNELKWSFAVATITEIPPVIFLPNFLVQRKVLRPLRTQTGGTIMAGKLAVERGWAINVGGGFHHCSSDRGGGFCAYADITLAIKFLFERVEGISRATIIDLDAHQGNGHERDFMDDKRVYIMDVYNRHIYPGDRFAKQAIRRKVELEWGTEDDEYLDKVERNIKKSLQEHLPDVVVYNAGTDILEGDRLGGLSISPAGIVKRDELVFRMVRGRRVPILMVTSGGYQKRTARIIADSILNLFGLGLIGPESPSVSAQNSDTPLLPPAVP
Description: HDAC isoform selectivity, HDAC11. The settings on record: HDAC subtype panel. The class given is biochemical.

Experiment [8] has as its system MCF-7 cells. The experiment can be described thus: MTT antiproliferative assay, MCF-7. Conditions: Homo sapiens, MCF7, read-out: IC50 MCF-7.
Description: The cytotoxicity assay was performed with MTT method as previously described ([73], [88], [89]).
Experiment [9] concerns the target T4, HDAC7 (Homo sapiens, UniProt Q8WUI4).
T4 sequence (Q8WUI4 1-952): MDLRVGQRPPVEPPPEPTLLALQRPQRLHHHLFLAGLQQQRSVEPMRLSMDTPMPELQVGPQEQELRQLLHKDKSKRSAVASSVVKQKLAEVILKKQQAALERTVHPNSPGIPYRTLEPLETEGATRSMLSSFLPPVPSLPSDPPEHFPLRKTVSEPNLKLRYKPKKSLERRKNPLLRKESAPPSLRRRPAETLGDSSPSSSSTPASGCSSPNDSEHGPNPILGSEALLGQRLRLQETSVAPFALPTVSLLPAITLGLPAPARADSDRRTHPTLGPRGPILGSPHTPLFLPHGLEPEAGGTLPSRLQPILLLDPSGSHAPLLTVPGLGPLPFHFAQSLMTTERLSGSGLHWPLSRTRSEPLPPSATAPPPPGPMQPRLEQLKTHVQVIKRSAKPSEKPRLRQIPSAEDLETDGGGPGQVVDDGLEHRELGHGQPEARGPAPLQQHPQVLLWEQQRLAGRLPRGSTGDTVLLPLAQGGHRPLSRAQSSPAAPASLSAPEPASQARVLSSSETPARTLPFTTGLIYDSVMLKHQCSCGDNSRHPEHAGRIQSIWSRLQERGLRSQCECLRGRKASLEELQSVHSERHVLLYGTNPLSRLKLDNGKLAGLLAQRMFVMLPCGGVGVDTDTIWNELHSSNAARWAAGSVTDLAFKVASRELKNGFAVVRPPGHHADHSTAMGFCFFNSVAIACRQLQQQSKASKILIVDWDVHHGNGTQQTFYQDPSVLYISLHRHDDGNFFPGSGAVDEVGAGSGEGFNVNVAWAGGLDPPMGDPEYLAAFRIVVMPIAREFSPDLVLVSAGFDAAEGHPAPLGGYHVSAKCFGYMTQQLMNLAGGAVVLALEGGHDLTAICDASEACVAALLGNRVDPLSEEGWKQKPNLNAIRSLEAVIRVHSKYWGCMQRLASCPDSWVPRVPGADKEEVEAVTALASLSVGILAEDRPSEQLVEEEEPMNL
Description: HDAC isoform selectivity, HDAC7. The class given is biochemical. The settings on record: HDAC subtype panel.

HDAC2, sequence (Q92769 whole entry, canonical isoform): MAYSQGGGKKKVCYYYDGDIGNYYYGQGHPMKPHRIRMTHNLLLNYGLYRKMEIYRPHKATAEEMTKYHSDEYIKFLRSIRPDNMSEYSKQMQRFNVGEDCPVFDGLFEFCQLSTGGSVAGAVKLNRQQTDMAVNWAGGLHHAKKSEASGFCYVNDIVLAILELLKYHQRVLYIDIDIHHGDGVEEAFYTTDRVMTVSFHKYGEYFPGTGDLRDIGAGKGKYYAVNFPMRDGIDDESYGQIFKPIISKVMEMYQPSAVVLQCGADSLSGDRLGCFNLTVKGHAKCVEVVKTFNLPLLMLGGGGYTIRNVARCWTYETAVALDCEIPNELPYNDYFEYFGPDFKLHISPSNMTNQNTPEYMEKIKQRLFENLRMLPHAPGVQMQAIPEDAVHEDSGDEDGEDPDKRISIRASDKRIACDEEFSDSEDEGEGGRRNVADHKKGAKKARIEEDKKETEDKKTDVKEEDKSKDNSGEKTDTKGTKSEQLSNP

Turning to `O=C(CCCCCCC(=O)N1CCC(C(=O)Nc2ccc([C@@H]3[C@H]4CSCN4[C@]4(C(=O)Nc5cc(Cl)ccc54)[C@H]3C(=O)c3ccccc3)cc2)CC1)NO` [compound 11b, N-(4-((3R,6'S,7'R,7a'S)-6'-benzoyl-6-chloro-2-oxo-1',6',7',7a'-tetrahydro-3'H-spiro[indoline-3,5'-pyrrolo[1,2-c]thiazol]-7'-yl)phenyl)-1-(8-(hydroxyamino)-8-oxooctanoyl)piperidine-4-carboxamide], the “acetylation level of H4 (Ac-H4, western blot)” value in experiment [1] is “up-regulating the expression of p53 and Ac-H4; also recorded: increased the expression of p53 and Ac-H4; also recorded: increased acetylation level of H4”. In addition, the IC50 is 64 ± 4 nM in experiment [2]; greater than 10000 nM in experiment [3]; 313 ± 23 nM in experiment [5]; greater than 10000 nM in [6]; greater than 10000 nM in [7]; 1370 ± 450 nM in [8]. In addition, the IC50 in experiment [9] was greater than 10000 nM. In experiment [4], this compound returned an inhibition at 1 µM of 68%.
